Laboratory results published in patent publication US20240041042A1, “1-(PYRIDYL)-5-AZINYLPYRAZOLE DERIVATIVES, AND THEIR USE FOR CONTROL OF UNDESIRED PLANT GROWTH” (Bayer Aktiengesellschaft, priority 2020, published 2024).

Key:
Format in all cases: in vivo
[1] = test system: Polygonum convolvulus (POLCO); assay: Post-emergence herbicidal action against POLCO; conditions: dosage 320 g/ha
Procedure, shortened: (§1)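 Greenhouse plants sprayed at the one-leaf stage, 2–3 weeks after sowing, with WP or EC formulations plus 0.5% additive at 600 l/ha water. Activity rated visually after about 3 weeks versus untreated controls (100% = dead, 0% = like control), at 320 g/ha or lower.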

[2] = test system: Polygonum convolvulus (POLCO); assay: Pre-emergence herbicidal action against POLCO
Procedure, shortened: (§2)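 Pre-emergence soil-surface spray of compound, formulated as wettable powder or emulsion concentrate, in aqueous suspension or emulsion with 0.5% additive (600 l/ha; rate 320 g/ha or less). Activity rated visually after roughly 3 weeks in the greenhouse as a percentage of untreated controls, 0% meaning no difference.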

Lolium rigidum (LOLRI) [3] = assay: Pre-emergence herbicidal action against LOLRI
Procedure, shortened: as §2

Viola tricolor (VIOTR) [4] = assay: Post-emergence herbicidal action against VIOTR
Procedure, shortened: as §1

[5] = test system: Digitaria sanguinalis (DIGSA); assay: Post-emergence herbicidal action against DIGSA; conditions: visual rating about 3 weeks after treatment
Procedure, shortened: as §1

[6] = test system: Echinochloa crus-galli (ECHCG); assay: Pre-emergence herbicidal action against ECHCG
Procedure, shortened: as §2

Viola tricolor (VIOTR) [7] = assay: Pre-emergence herbicidal action against VIOTR
Procedure, shortened: as §2

[8] = test system: Matricaria inodora (MATIN); assay: Pre-emergence herbicidal action against MATIN
Procedure, shortened: as §2

Setaria viridis (SETVI) [9] = assay: Pre-emergence herbicidal action against SETVI
Procedure, shortened: as §2

[10] = test system: Verconica persica (VERPE); assay: Pre-emergence herbicidal action against VERPE
Procedure, shortened: as §2

Avena fatua (AVEFA) [11] = assay: Pre-emergence herbicidal action against AVEFA; conditions: 320 g/ha, visual scoring after about 3 weeks vs untreated controls
Procedure, shortened: as §2

[12] = test system: Pharbitis purpurea (PHBPU); assay: Post-emergence herbicidal action against PHBPU
Procedure, shortened: as §1

Avena fatua (AVEFA) [13] = assay: Post-emergence herbicidal action against AVEFA; conditions: visual rating about 3 weeks after treatment
Procedure, shortened: as §1

Oryza sativa (ORYSA) = conditions: crop plant compatibility, 80 g/ha, effect in comparison to untreated controls
Procedure, shortened: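 Test crops were treated 2 to 3 weeks after sowing, once they reached one leaf, by spraying compound in water with 0.5% additive at 600 l/ha. Visual scoring compared them with untreated controls roughly 3 weeks on, and appendices a, b and c denote different doses.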

[14] = test system: Abutilon theophrasti (ABUTH); assay: Pre-emergence herbicidal action against ABUTH; conditions: Dosage column 320 g/ha (title prints 3200 g/ha); scored visually after about 3 weeks; 100% = plants have died
Procedure, shortened: as §2

[15] = test system: Alopecurus myosuroides (ALOMY); assay: Pre-emergence herbicidal action against ALOMY; conditions: scored visually after about 3 weeks, 100% = plants have died
Procedure, shortened: as §2

[16] = test system: Verconica persica (VERPE); assay: Post-emergence herbicidal action against VERPE
Procedure, shortened: as §1

Setaria viridis (SETVI) [17] = assay: Post-emergence herbicidal action against SETVI; conditions: dosage 320 g/ha
Procedure, shortened: as §1

[18] = test system: Digitaria sanguinalis (DIGSA); assay: Pre-emergence herbicidal action against DIGSA
Procedure, shortened: as §2

[19] = test system: Echinochloa crus-galli (ECHCG); assay: Post-emergence herbicidal action against ECHCG
Procedure, shortened: as §1

[20] = test system: Abutilon theophrasti (ABUTH); assay: Post-emergence herbicidal action against ABUTH; conditions: visual rating about 3 weeks after treatment vs untreated controls (100% = plants have died, 0% = like control plants)
Procedure, shortened: as §1

[21] = test system: Pharbitis purpurea (PHBPU); assay: Pre-emergence herbicidal action against PHBPU
Procedure, shortened: as §2

Lolium rigidum (LOLRI) [22] = assay: Post-emergence herbicidal action against LOLRI
Procedure, shortened: as §1

[23] = test system: Amaranthus retroflexus (AMARE); assay: Pre-emergence herbicidal action against AMARE; conditions: visual scoring after about 3 weeks vs untreated controls
Procedure, shortened: as §2

[24] = test system: Alopecurus myosuroides (ALOMY); assay: Post-emergence herbicidal action against ALOMY; conditions: visual rating about 3 weeks after treatment vs untreated controls (100% = plants have died, 0% = like control plants)
Procedure, shortened: as §1

[25] = test system: Amaranthus retroflexus (AMARE); assay: Post-emergence herbicidal action against AMARE
Procedure, shortened: as §1

[26] = 80 g/ha, visual scoring after about 3 weeks vs untreated controls

C[C@@H](Oc1nn(-c2nc(F)ccc2F)c(-c2ccc(F)nc2)c1C1CC1)C(=O)O [Example I-296]
Post-emergence action against POLCO in % [1]: 80% | Pre-emergence action against POLCO in % ([2]; dosage 80 g/ha): 80% | Pre-emergence action against POLCO in % ([2]; dosage 320 g/ha): 90% | Pre-emergence action against LOLRI in % (Lolium rigidum (LOLRI) [3]; dosage 320 g/ha): 100% | Post-emergence action against VIOTR in % (Viola tricolor (VIOTR) [4]; 80 g/ha): 80% | Post-emergence action against VIOTR in % (Viola tricolor (VIOTR) [4]; 320 g/ha): 80% | Post-emergence action against DIGSA in % ([5]; 80 g/ha): 80% | Post-emergence action against DIGSA in % ([5]; 320 g/ha): 90% | Pre-emergence action against ECHCG in % ([6]; dosage 320 g/ha): 100% | Pre-emergence action against VIOTR in % (Viola tricolor (VIOTR) [7]; 320 g/ha, Viola tricolor): 100% | Pre-emergence action against VIOTR in % (Viola tricolor (VIOTR) [7]; dosage 80 g/ha): 90% | Pre-emergence action against MATIN in % ([8]; dosage 80 g/ha): 80% | Pre-emergence action against MATIN in % ([8]; dosage 320 g/ha): 90% | Pre-emergence action against SETVI in % (Setaria viridis (SETVI) [9]; dosage 80 g/ha): 90% | Pre-emergence action against SETVI in % (Setaria viridis (SETVI) [9]; dosage 320 g/ha): 100% | Pre-emergence action against VERPE in % ([10]; dosage 80 g/ha): 90% | Pre-emergence action against VERPE in % ([10]; dosage 320 g/ha): 100% | Pre-emergence action against AVEFA in % (Avena fatua (AVEFA) [11]): 90% | Post-emergence action against PHBPU in % ([12]; dosage 320 g/ha): 90% | Post-emergence action against AVEFA in % (Avena fatua (AVEFA) [13]; 80 g/ha): 80% | Post-emergence action against AVEFA in % (Avena fatua (AVEFA) [13]; 320 g/ha): 80% | Post-emergence action against ORYSA in % (Oryza sativa (ORYSA)): 0% | Pre-emergence action against ABUTH [14]: 80% | Pre-emergence action against ALOMY ([15]; 80 g/ha): 80% | Pre-emergence action against ALOMY ([15]; 320 g/ha): 100% | Post-emergence action against VERPE in % ([16]; 320 g/ha, VERPE): 80% | Post-emergence action against SETVI in % (Setaria viridis (SETVI) [17]): 80% | Pre-emergence action against DIGSA in % [18, 26]: 90% | Pre-emergence action against DIGSA in % ([18]; dosage 320 g/ha): 100% | Post-emergence action against ECHCG in % ([19]; dosage 80 g/ha): 80% | Post-emergence action against ECHCG in % ([19]; dosage 320 g/ha): 80% | Post-emergence action against ABUTH in % ([20]; 320 g/ha): 80% | Pre-emergence action against PHBPU in % ([21]; dosage 320 g/ha): 90% | Post-emergence action against LOLRI in % (Lolium rigidum (LOLRI) [22]; dosage 80 g/ha): 80% | Post-emergence action against LOLRI in % (Lolium rigidum (LOLRI) [22]; dosage 320 g/ha): 80% | Pre-emergence action against AMARE in % ([23]; 80 g/ha): 80% | Pre-emergence action against AMARE in % ([23]; 320 g/ha): 90% | Post-emergence action against ALOMY in % ([24]; 80 g/ha): 80% | Post-emergence action against ALOMY in % ([24]; 320 g/ha): 90%

CCOC(=O)COc1nn(-c2ncccc2F)c(-c2cncc(F)c2)c1C1CC1 [Example I-174]
Post-emergence action against POLCO in % [1]: 80% | Pre-emergence action against POLCO in % ([2]; dosage 80 g/ha): 90% | Pre-emergence action against POLCO in % ([2]; dosage 320 g/ha): 100% | Pre-emergence action against LOLRI in % (Lolium rigidum (LOLRI) [3]; dosage 80 g/ha): 100% | Pre-emergence action against LOLRI in % (Lolium rigidum (LOLRI) [3]; dosage 320 g/ha): 100% | Post-emergence action against VIOTR in % (Viola tricolor (VIOTR) [4]; 80 g/ha): 80% | Post-emergence action against VIOTR in % (Viola tricolor (VIOTR) [4]; 320 g/ha): 80% | Post-emergence action against DIGSA in % ([5]; 80 g/ha): 90% | Post-emergence action against DIGSA in % ([5]; 320 g/ha): 90% | Pre-emergence action against ECHCG in % ([6]; dosage 80 g/ha): 100% | Pre-emergence action against ECHCG in % ([6]; dosage 320 g/ha): 100% | Pre-emergence action against VIOTR in % (Viola tricolor (VIOTR) [7]; 320 g/ha, Viola tricolor): 100% | Pre-emergence action against VIOTR in % (Viola tricolor (VIOTR) [7]; dosage 80 g/ha): 100% | Pre-emergence action against MATIN in % ([8]; dosage 80 g/ha): 90% | Pre-emergence action against MATIN in % ([8]; dosage 320 g/ha): 90% | Pre-emergence action against SETVI in % (Setaria viridis (SETVI) [9]; dosage 80 g/ha): 90% | Pre-emergence action against SETVI in % (Setaria viridis (SETVI) [9]; dosage 320 g/ha): 100% | Pre-emergence action against VERPE in % ([10]; dosage 80 g/ha): 100% | Pre-emergence action against VERPE in % ([10]; dosage 320 g/ha): 100% | Pre-emergence action against AVEFA in % (Avena fatua (AVEFA) [11]): 90% | Post-emergence action against PHBPU in % ([12]; dosage 80 g/ha): 80% | Post-emergence action against PHBPU in % ([12]; dosage 320 g/ha): 90% | Post-emergence action against AVEFA in % (Avena fatua (AVEFA) [13]; 80 g/ha): 80% | Post-emergence action against AVEFA in % (Avena fatua (AVEFA) [13]; 320 g/ha): 90% | Pre-emergence action against ABUTH [14]: 90% | Pre-emergence action against ALOMY ([15]; 80 g/ha): 90% | Pre-emergence action against ALOMY ([15]; 320 g/ha): 100% | Post-emergence action against VERPE in % ([16]; 320 g/ha, VERPE): 80% | Post-emergence action against VERPE in % ([16]; dosage 80 g/ha): 80% | Pre-emergence action against DIGSA in % [18, 26]: 100% | Pre-emergence action against DIGSA in % ([18]; dosage 320 g/ha): 100% | Post-emergence action against ECHCG in % ([19]; dosage 80 g/ha): 80% | Post-emergence action against ECHCG in % ([19]; dosage 320 g/ha): 80% | Post-emergence action against ABUTH in % ([20]; 80 g/ha): 80% | Post-emergence action against ABUTH in % ([20]; 320 g/ha): 80% | Pre-emergence action against PHBPU in % ([21]; dosage 80 g/ha): 90% | Pre-emergence action against PHBPU in % ([21]; dosage 320 g/ha): 90% | Post-emergence action against LOLRI in % (Lolium rigidum (LOLRI) [22]; dosage 80 g/ha): 80% | Post-emergence action against LOLRI in % (Lolium rigidum (LOLRI) [22]; dosage 320 g/ha): 80% | Pre-emergence action against AMARE in % ([23]; 80 g/ha): 100% | Pre-emergence action against AMARE in % ([23]; 320 g/ha): 100% | Post-emergence action against ALOMY in % ([24]; 80 g/ha): 90% | Post-emergence action against ALOMY in % ([24]; 320 g/ha): 90% | Post-emergence action against AMARE in % ([25]; 80 g/ha, visual rating about 3 weeks after treatment vs untreated controls (100% = plants have died, 0% = like control plants)): 80% | Post-emergence action against AMARE in % ([25]; 320 g/ha, visual rating about 3 weeks after treatment): 80%
